This is an account of results in ChEMBL document CHEMBL4813917, “2-((1-Phenyl-1H-1,2,3-triazol-4-yl)methyl)-2-azabicyclo[3.2.1]octan-3-one derivatives: Simplification and modification of aconitine scaffold for the discovery of novel anticancer agents” (Eur J Med Chem, 2021).

The test system of one series is OVCAR-3. Nature of the series: Antiproliferative activity against human OVCAR-3 cells assessed as inhibition of cell proliferation measured after 24 hrs by MTT assay. To be noted: OVCAR-3, 24 h. In kind it is functional, cell-based. For orientation: Formazan colour is commonly taken as a measure of viable cells.
The test system of another series is PANC-1. Nature of the series: Antiproliferative activity against human PANC-1 cells assessed as inhibition of cell proliferation measured after 24 hrs by MTT assay. In kind it is functional, cell-based. The conditions noted are these: PANC-1, 24 h.
Series [1] is described as follows: Cytotoxicity against human HPDE6c7 cells assessed as reduction in cell viability measured after 24 hrs by MTT assay. The format is functional.
For series [2], the system named is SW-620. Nature of the series: Antitumour activity against human SW-620 cells xenografted in Balb/c mouse assessed as inhibition of tumour growth at 5 mg/kg, ip measured after 21 days. In kind it is functional. To be noted: SW-620, ip, 504 h, time 21 day, read-out: TGI.
Series [3] relates to SW-620. Nature of the series: Antitumour activity against human SW-620 cells xenografted in Balb/c mouse assessed as decrease in Ki67 expression in tumour at 5 mg/kg, ip measured after 21 days immunochemical staining method. The conditions noted are these: time 21.0 day. In kind it is functional, organism-based.
Series [4] in a line: Cytotoxicity against human GES1 cells assessed as reduction in cell viability measured after 24 hrs by MTT assay. The format is cell-based.
For a further series, the system named is LoVo. The experiment in a line: Antiproliferative activity against human LoVo cells assessed as inhibition of cell proliferation measured after 24 hrs by MTT assay. In kind it is functional, cell-based.
Series [5] can be described thus: Cytotoxicity against human MRC5 cells assessed as reduction in cell viability measured after 24 hrs by MTT assay. In kind it is cell-based.
The subject of a further series is SGC-7901. The experiment in a line: Antiproliferative activity against human SGC-7901 cells assessed as inhibition of cell proliferation measured after 24 hrs by MTT assay. In kind it is functional, cell-based. The conditions noted are these: SGC-7901, 24 h.
A short description of series [6]: Cytotoxicity against human L02 cells assessed as reduction in cell viability measured after 24 hrs by MTT assay. In kind it is cell-based.
The next series concerns A549. The experiment in a line: Antiproliferative activity against human A549 cells assessed as inhibition of cell proliferation measured after 24 hrs by MTT assay. To be noted: A549, 24 h. In kind it is functional, cell-based.
A further series deals with HepG2. Nature of the series: Antiproliferative activity against human HepG2 cells assessed as inhibition of cell proliferation measured after 24 hrs by MTT assay. In kind it is functional, cell-based. The conditions noted are these: HepG2, 24 h.
A short description of series [7]: Cytotoxicity against human IOSE80 cells assessed as reduction in cell viability measured after 24 hrs by MTT assay. The format is cell-based.
The nature of series [8]: Cytotoxicity against human NCM460 cells assessed as reduction in cell viability measured after 24 hrs by MTT assay. The format is cell-based.

Calls of active or inactive are those of the source. The calls are words filed in the database; no cut-off is given here.

Broadly, the IC50 is the concentration needed to halve the response being measured. For orientation: CC50 means the concentration giving 50% cytotoxicity. Regarding `C=CCNC1=C2C[C@@H](C)C[C@H](OC)[C@H](O)[C@@H](C)/C=C(\C)[C@H](OC(N)=O)[C@@H](OC)/C=C\C=C(/C)C(=O)NC(=CC1=O)C2=O` [TANESPIMYCIN], the concentration for half-maximal inhibition (IC50) with OVCAR-3 was 0.48 µM; with PANC-1, 3.21 µM; with LoVo, 0.26 µM; with SGC-7901 it was greater than 10 µM; with A549, greater than 10 µM; in the series on HepG2, 0.33 µM. In addition, in [1], the CC50 worked out at 19.5 µM. Besides, in the series with SW-620 [2], the inhibition in vivo at 5 mg/kg amounted to 29.6%. Also, the outcome in the series on SW-620 [3] was Active. The CC50 at 24 h is 7.94 µM in [4]; 14.2 µM in series [5]; 11.7 µM in series [6]; 21.5 µM in series [7]; 14.2 µM in [8].
